“And” between values parts separate entries of the source, which are not always exact repeats. Equal values may be shown once. Records with an inconclusive call do not appear.
Test system: MX-1 breast xenograft, intrarenal, nude mice, tumor weight
Experiment: NCI In Vivo Anticancer Drug Screen. Data for tumor model Human Mammary Carcinoma MX-1 Xenograft (intrarenal inoculation) in NU/NU BALB/C (nude) mice
Conditions: endpoint: mean tumor weight change, higher = larger tumour
In short: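 Transplantable tumors established in mice; animals dosed with compound or vehicle; survival or tumor size then recorded. Result reported as treated (T) divided by vehicle control (C).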

[1] = dose: 150.0 mg/kg/injection, schedule: Q04DX003 (ip), vehicle: Klucel (hydroxypropylcellulose) (HPC)
[2] = dose: 300.0 mg/kg/injection, schedule: Q04DX003 (sc), vehicle: Klucel (hydroxypropylcellulose) (HPC)
[3] = dose: 600.0 mg/kg/injection, schedule: Q04DX003 (sc), vehicle: Klucel (hydroxypropylcellulose) (HPC)
[4] = dose: 1200.0 mg/kg/injection, schedule: Q04DX003 (sc), vehicle: Klucel (hydroxypropylcellulose) (HPC)
[5] = dose: 2400.0 mg/kg/injection, schedule: Q04DX003 (sc), vehicle: Klucel (hydroxypropylcellulose) (HPC)

Cc1c(-c2ccc(-c3ccccc3F)cc2)nc2ccc(F)cc2c1C(=O)O
T/C (dose: 6.9 mg/kg/injection, schedule: Q01DX009 (ip), vehicle: water): 15 % of control and 19 % of control
T/C (dose: 11.5 mg/kg/injection, schedule: Q01DX009 (ip), vehicle: water): 8 % of control and 18 % of control
T/C (dose: 19.2 mg/kg/injection, schedule: Q01DX009 (ip), vehicle: water): 2 % of control and 12 % of control
T/C (dose: 32.0 mg/kg/injection, schedule: Q01DX009 (ip), vehicle: water): 6 % of control and 9 % of control

CN(Cc1cnc2nc(N)nc(N)c2n1)c1c(Cl)cc(C(=O)NC(CCC(=O)O)C(=O)O)cc1Cl (stereo not given)
T/C (dose: 12.5 mg/kg/injection, schedule: Q01DX010 (sc), vehicle: Klucel (hydroxypropylcellulose) (HPC)): 64 % of control
T/C (dose: 25.0 mg/kg/injection, schedule: Q01DX010 (sc), vehicle: Klucel (hydroxypropylcellulose) (HPC)): 25 % of control
T/C (dose: 50.0 mg/kg/injection, schedule: Q01DX010 (sc), vehicle: Klucel (hydroxypropylcellulose) (HPC)): -67 % of control

Oc1c(Cl)cc(Cl)cc1C=NCCSc1ccc(Cl)cc1
T/C [1]: 99 % of control and 112 % of control
T/C (dose: 300.0 mg/kg/injection, schedule: Q04DX003 (ip), vehicle: Klucel (hydroxypropylcellulose) (HPC)): 95 % of control
T/C (dose: 600.0 mg/kg/injection, schedule: Q04DX003 (ip), vehicle: Klucel (hydroxypropylcellulose) (HPC)): 104 % of control and 107 % of control

c1ccc2c3c(c4c(c2c1)CN(C1CCCCC1)CO4)OCN(C1CCCCC1)C3
T/C (dose: 37.5 mg/kg/injection, schedule: Q04DX003 (ip), vehicle: water): 108 % of control
T/C (dose: 75.0 mg/kg/injection, schedule: Q04DX003 (ip), vehicle: water): 82 % of control and 88 % of control
T/C (dose: 150.0 mg/kg/injection, schedule: Q04DX003 (ip), vehicle: water): 59 % of control
T/C (dose: 300.0 mg/kg/injection, schedule: Q04DX003 (ip), vehicle: water): 111 % of control

CC1=CC(=Nc2ccc(N(CCCl)CCCl)cc2)C=C(C)C1=O
T/C [2]: -11 % of control
T/C [3]: -12 % of control
T/C [4]: 1 % of control
T/C [5]: -20 % of control

COc1cc2c(cc1OC)[C@@H]1C(=O)c3ccc4c(c3O[C@@H]1CO2)C[C@H](C(C)C)O4
T/C (dose: 37.5 mg/kg/injection, schedule: Q04DX003 (ip), vehicle: Klucel (hydroxypropylcellulose) (HPC)): 78 % of control
T/C (dose: 75.0 mg/kg/injection, schedule: Q04DX003 (ip), vehicle: Klucel (hydroxypropylcellulose) (HPC)): 55 % of control
T/C [1]: 57 % of control

CCC(/C=C/C1OC(=O)C=CC1C)=C\C(C)C/C=C/C(C)=C/C(C)C(=O)C(C)C(O)C(C)C/C(C)=C/C(=O)O (stereo not given)
T/C (dose: 1.0 mg/kg/injection, schedule: Q04DX003 (ip), vehicle: saline + alcohol): 114 % of control
T/C (dose: 2.0 mg/kg/injection, schedule: Q04DX003 (ip), vehicle: saline + alcohol): 109 % of control
T/C (dose: 4.0 mg/kg/injection, schedule: Q04DX003 (ip), vehicle: saline + alcohol): 71 % of control
T/C (dose: 75.0 micrograms/kg/injection, schedule: Q04DX003 (ip), vehicle: saline + alcohol): 119 % of control
T/C (dose: 150.0 micrograms/kg/injection, schedule: Q04DX003 (ip), vehicle: saline + alcohol): 114 % of control
T/C (dose: 300.0 micrograms/kg/injection, schedule: Q04DX003 (ip), vehicle: saline + alcohol): 107 % of control
T/C (dose: 600.0 micrograms/kg/injection, schedule: Q04DX003 (ip), vehicle: saline + alcohol): 102 % of control

CC(/C=C/C1OC(=O)C=CC1C)=C\C(C)C/C=C/C(C)=C/C(C)C(=O)C(C)C(O)C(C)C/C(C)=C/C(=O)O (stereo not given)
T/C (dose: 50.0 micrograms/kg/injection, schedule: Q04DX003 (ip), vehicle: alcohol): 104 % of control
T/C (dose: 100.0 micrograms/kg/injection, schedule: Q04DX003 (ip), vehicle: alcohol): 87 % of control
T/C (dose: 200.0 micrograms/kg/injection, schedule: Q04DX003 (ip), vehicle: alcohol): 81 % of control
T/C (dose: 400.0 micrograms/kg/injection, schedule: Q04DX003 (ip), vehicle: alcohol): 111 % of control

Nc1n[nH]c2ccccc12
T/C (dose: 300.0 mg/kg/injection, schedule: Q04DX003 (ip), vehicle: other): 93 % of control
T/C (dose: 600.0 mg/kg/injection, schedule: Q04DX003 (ip), vehicle: other): 108 % of control

C=CC(=O)N1CN(C(=O)C=C)CN(C(=O)C=C)C1
T/C (dose: 6.25 mg/kg/injection, schedule: Q01DX010 (sc), vehicle: saline with Tween-80): 116 % of control
T/C (dose: 12.5 mg/kg/injection, schedule: Q01DX010 (sc), vehicle: saline with Tween-80): 179 % of control

CO[C@H](/C(C)=C/C=C/C(C)=C/c1coc(C)n1)[C@H](C)[C@H]1C[C@@H](O)[C@@]2(C)O[C@H]2/C=C/[C@@H](C)[C@@H]2C[C@@H](CC(=O)O2)C[C@H]2O[C@@H]2C(=O)O1
T/C (dose: 0.13 mg/kg/injection, schedule: Q04DX003 (ip), vehicle: other): 62 % of control
T/C (dose: 0.2 mg/kg/injection, schedule: Q04DX003 (ip), vehicle: other): 67 % of control
T/C (dose: 0.25 mg/kg/injection, schedule: Q04DX003 (ip), vehicle: Klucel (hydroxypropylcellulose) (HPC)): 10 % of control
T/C (dose: 0.25 mg/kg/injection, schedule: Q04DX003 (sc), vehicle: Klucel (hydroxypropylcellulose) (HPC)): 46 % of control and 55 % of control and 63 % of control
T/C (dose: 0.3 mg/kg/injection, schedule: Q04DX003 (ip), vehicle: other): 55 % of control
T/C (dose: 0.44 mg/kg/injection, schedule: Q04DX003 (ip), vehicle: other): 27 % of control
T/C (dose: 0.5 mg/kg/injection, schedule: Q04DX003 (ip), vehicle: Klucel (hydroxypropylcellulose) (HPC)): 7 % of control
T/C (dose: 0.5 mg/kg/injection, schedule: Q04DX003 (sc), vehicle: Klucel (hydroxypropylcellulose) (HPC)): 35 % of control and 36 % of control and 41 % of control
T/C (dose: 1.0 mg/kg/injection, schedule: Q04DX003 (ip), vehicle: Klucel (hydroxypropylcellulose) (HPC)): 5 % of control
T/C (dose: 1.0 mg/kg/injection, schedule: Q04DX003 (sc), vehicle: Klucel (hydroxypropylcellulose) (HPC)): 4 % of control and 19 % of control

O=S(CCCl)CCCl
T/C (dose: 25.0 mg/kg/injection, schedule: Q04DX003 (sc), vehicle: Klucel (hydroxypropylcellulose) (HPC)): 94 % of control
T/C (dose: 50.0 mg/kg/injection, schedule: Q04DX003 (sc), vehicle: Klucel (hydroxypropylcellulose) (HPC)): 92 % of control

CC(=O)C[n+]1ccccc1Sc1ccc(Cl)cc1
T/C (dose: 25.0 mg/kg/injection, schedule: Q04DX003 (ip), vehicle: saline with Tween-80): 66 % of control
T/C (dose: 50.0 mg/kg/injection, schedule: Q04DX003 (ip), vehicle: saline with Tween-80): 64 % of control
T/C (dose: 100.0 mg/kg/injection, schedule: Q04DX003 (ip), vehicle: saline with Tween-80): 89 % of control

COc1cccc2c1C(=O)c1c(O)c3c(c(O)c1C2=O)C[C@](O)(C(=O)CO)CC3OC1CC(N)C(OC2CCCCO2)C(C)O1 (stereo not given in full)
T/C (dose: 7.5 mg/kg/injection, schedule: Q04DX003 (ip), vehicle: water): 21 % of control

O=C(Nc1ccccc1CCl)Nc1ccccc1CCl
T/C (dose: 1200.0 mg/kg/injection, schedule: Q04DX003 (ip), vehicle: saline with Tween-80): 9 % of control and 12 % of control and 20 % of control

C=C/C(C)=C/[C@H](C)C(=O)C[C@H](O)CC1CC(=O)NC(=O)C1
T/C (dose: 300.5 mg/kg/injection, schedule: Q04DX003 (sc), vehicle: water): 73 % of control
T/C (dose: 600.0 mg/kg/injection, schedule: Q04DX003 (sc), vehicle: water): 98 % of control
T/C (dose: 1200.0 mg/kg/injection, schedule: Q04DX003 (sc), vehicle: water): 89 % of control

CCCCCCCC1C(=O)OC2CC3C(C)=CC(=O)C(O)C3(C)C3C4(O)OCC23C1C(C)C4O (stereo not given)
T/C (dose: 10.0 mg/kg/injection, schedule: Q04DX003 (ip), vehicle: Klucel (hydroxypropylcellulose) (HPC)): 89 % of control
T/C (dose: 20.0 mg/kg/injection, schedule: Q04DX003 (ip), vehicle: Klucel (hydroxypropylcellulose) (HPC)): 107 % of control
T/C (dose: 40.0 mg/kg/injection, schedule: Q04DX003 (ip), vehicle: Klucel (hydroxypropylcellulose) (HPC)): 53 % of control

CCCCN1C(=O)N(c2ccc(OCC)cc2)C2N(CCCC)C1C(C)(C)C2(C)C (stereo not given)
T/C (dose: 15.0 mg/kg/injection, schedule: Q04DX003 (ip), vehicle: saline with Tween-80): 90 % of control
T/C (dose: 30.0 mg/kg/injection, schedule: Q04DX003 (ip), vehicle: saline with Tween-80): 77 % of control
T/C (dose: 60.0 mg/kg/injection, schedule: Q04DX003 (ip), vehicle: saline with Tween-80): 89 % of control
T/C (dose: 240.0 mg/kg/injection, schedule: Q04DX003 (ip), vehicle: saline with Tween-80): 98 % of control

O=NNc1ccccn1
T/C (dose: 4.0 mg/kg/injection, schedule: Q01DX010 (sc), vehicle: saline): 124 % of control
T/C (dose: 16.0 mg/kg/injection, schedule: Q01DX010 (sc), vehicle: saline): 80 % of control
T/C (dose: 32.0 mg/kg/injection, schedule: Q01DX010 (sc), vehicle: saline): 14 % of control

COc1ccc2ccccc2c1C1NC(=O)c2ccccc2N1 (stereo not given)
T/C [2]: 79 % of control
T/C [3]: 104 % of control
T/C [4]: 90 % of control
T/C [5]: 63 % of control

From PubChem BioAssay AID298 (DTP/NCI, 2004)
